Like-named read-outs stand apart in the source and are kept apart here.
How the values were obtained:
KDR (VEGFR2) = KDR (VEGFR2) (Homo sapiens, UniProt P35968); assay: Z'-LYTE SelectScreen biochemical kinase assay KDR (VEGFR2)
Source text: (§1) Thermo Fisher Scientific SelectScreen™ Biochemical Kinase Profiling Service Z′-LYTE™ Screening Protocol and Assay Conditions Assay Theory
(§2) The […] biochemical assay employs a fluorescence-based, coupled-enzyme format and is based on the differential sensitivity of phosphorylated and non-phosphorylated peptides to proteolytic cleavage. The peptide substrate is labeled with two fluorophores—one at each end—that make up a FRET pair. In the primary reaction, the kinase transfers the gamma-phosphate of ATP to a single tyrosine, serine or threonine residue in a synthetic FRET-peptide. In the secondary reaction, a site-specific protease recognizes and cleaves non-phosphorylated FRET-peptides. Phosphorylation of FRET-peptides suppresses cleavage by the Development Reagent. Cleavage disrupts FRET between the donor (i.e., coumarin) and acceptor (i.e., fluorescein) fluorophores on the FRET-peptide, whereas uncleaved, phosphorylated FRET-peptides maintain FRET. A ratiometric method, which calculates the ratio (Emission Ratio=Coumarin emission (445 nm)/Fluorescein emission (520 nm)) of donor emission to acceptor emission after excitation of the donor fluorophore at 400 nm, is used to quantitate reaction progress, as shown in the equation below. A significant benefit of this ratiometric method for quantitating reaction progress is the elimination of well-to-well variations in FRET-peptide concentration and signal intensities. As a result, the assay yields very high Z′-factor values (>0.7) at a low percent phosphorylation. Both cleaved and uncleaved FRET-peptides contribute to the fluorescence signals and therefore to the Emission Ratio. The extent of phosphorylation of the FRET-peptide can be calculated from the Emission Ratio. The Emission Ratio will remain low if the FRET-peptide is phosphorylated (i.e., no kinase inhibition) and will be high if the FRET-peptide is non-phosphorylated (i.e., kinase inhibition).
(§3) The Test Compounds are screened in 1% DMSO (final) in the well. For 10 point titrations, 3-fold serial dilutions are conducted from the starting concentration of the customer's choosing.
(§4) All Peptide/Kinase Mixtures are diluted to a 2× working concentration in the appropriate Kinase Buffer (see section Kinase Specific Assay Conditions for a complete description).
(§5) All ATP Solutions are diluted to a 4× working concentration in Kinase Buffer (50 mM HEPES pH 7.5, 0.01% BRIJ-35, 10 mM MgCl2, 1 mM EGTA). ATP Km apparent is previously determined using a Z″-LYTE assay.
(§6) The Development Reagent is diluted in Development Buffer (see section Kinase-Specific Assay Conditions—Direct and Cascade for a complete description).
(§7) Bar-coded Corning, low volume NBS, black 384-well plate (Corning Cat. #4514) • 1. 100 nL—100× Test Compound in 100% DMSO • 2. 2.4 μL—Kinase buffer • 3. 5 μL—2× Peptide/Kinase Mixture • 4. 2.5 μL—4×ATP Solution • 5. 30—second plate shake • 6. 60—minute Kinase Reaction incubation at room temperature • 7. 5 μL—Development Reagent Solution • 8. 30—second plate shake • 9. 60—minute Development Reaction incubation at room temperature • 10. Read on fluorescence plate reader and analyze the data Z′-LYTE Assay Controls
(§8) SelectScreen Kinase Profiling Service uses XLfit from IDBS. The dose response curve is curve fit to model number 205 (sigmoidal dose-response model).
The 2×KDR (VEGFR2)/Tyr 01 mixture is prepared in 50 mM HEPES pH 7.5, 0.01% BRIJ-35, 10 mM MgCl2, 1 mM EGTA. The final 10 μL Kinase Reaction consists of 1-30 ng KDR (VEGFR2) and 2 μM Tyr 01 in 50 mM HEPES pH 7.5, 0.01% BRIJ-35, 10 mM MgCl2, 1 mM EGTA. After the 1 hour Kinase Reaction incubation, 5 μL of a 1:256 dilution of Development Reagent B is added.

AURKA (Aurora A) = molecular target: T1, AURKA (Aurora A) (Homo sapiens, UniProt O14965); assay: Z'-LYTE SelectScreen biochemical kinase assay AURKA (Aurora A)
T1 sequence (O14965 1-403): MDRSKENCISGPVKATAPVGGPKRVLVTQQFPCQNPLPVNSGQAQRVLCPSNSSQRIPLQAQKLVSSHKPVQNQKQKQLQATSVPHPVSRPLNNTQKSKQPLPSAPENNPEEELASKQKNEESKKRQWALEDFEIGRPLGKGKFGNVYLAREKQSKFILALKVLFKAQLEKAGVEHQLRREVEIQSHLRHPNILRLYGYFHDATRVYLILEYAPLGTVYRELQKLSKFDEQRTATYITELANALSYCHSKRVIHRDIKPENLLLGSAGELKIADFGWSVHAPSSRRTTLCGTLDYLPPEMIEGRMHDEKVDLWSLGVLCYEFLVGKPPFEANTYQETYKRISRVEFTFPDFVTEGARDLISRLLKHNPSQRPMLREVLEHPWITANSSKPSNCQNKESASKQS
Source text: as §1, §2, §3, §4, §5, §6, §7, §8
The 2×AURKA (Aurora A)/Ser/Thr 01 mixture is prepared in 50 mM HEPES pH 7.5, 0.01% BRIJ-35, 10 mM MgCl2, 1 mM EGTA. The final 10 μL Kinase Reaction consists of 0.91-8.56 ng AURKA (Aurora A) and 2 μM Ser/Thr 01 in 50 mM HEPES pH 7.5, 0.01% BRIJ-35, 10 mM MgCl2, 1 mM EGTA. After the 1 hour Kinase Reaction incubation, 5 μL of a 1:4096 dilution of Development Reagent A is added.

MAP4K4 (HGK) = MAP4K4 (HGK) (Homo sapiens, UniProt O95819); assay: Z'-LYTE SelectScreen biochemical kinase assay MAP4K4 (HGK)
Source text: as §1, §2, §3, §4, §5, §6, §7, §8
The 2×MAP4K4 (HGK)/Ser/Thr 07 mixture is prepared in 50 mM HEPES pH 7.5, 0.01% BRIJ-35, 10 mM MgCl2, 1 mM EGTA. The final 10 μL Kinase Reaction consists of 0.36-1.82 ng MAP4K4 (HGK) and 2 μM Ser/Thr 07 in 50 mM HEPES pH 7.5, 0.01% BRIJ-35, 10 mM MgCl2, 1 mM EGTA. After the 1 hour Kinase Reaction incubation, 5 μL of a 1:45000 dilution of Development Reagent A is added.

[1] = 10 μmolar compound concentration, ATP at Km app, read-out: KDR (VEGFR2) inhibition
[2] = read-out: % Inhibition mean KDR (VEGFR2)
[3] = 10 μmolar compound concentration, ATP at Km app, read-out: AURKA (Aurora A) inhibition
[4] = read-out: % Inhibition mean AURKA (Aurora A)
[5] = 10 μmolar compound concentration, ATP at Km app, read-out: MAP4K4 (HGK) inhibition
[6] = read-out: % Inhibition mean MAP4K4 (HGK)

Sequence of KDR (VEGFR2) (P35968 20-1356): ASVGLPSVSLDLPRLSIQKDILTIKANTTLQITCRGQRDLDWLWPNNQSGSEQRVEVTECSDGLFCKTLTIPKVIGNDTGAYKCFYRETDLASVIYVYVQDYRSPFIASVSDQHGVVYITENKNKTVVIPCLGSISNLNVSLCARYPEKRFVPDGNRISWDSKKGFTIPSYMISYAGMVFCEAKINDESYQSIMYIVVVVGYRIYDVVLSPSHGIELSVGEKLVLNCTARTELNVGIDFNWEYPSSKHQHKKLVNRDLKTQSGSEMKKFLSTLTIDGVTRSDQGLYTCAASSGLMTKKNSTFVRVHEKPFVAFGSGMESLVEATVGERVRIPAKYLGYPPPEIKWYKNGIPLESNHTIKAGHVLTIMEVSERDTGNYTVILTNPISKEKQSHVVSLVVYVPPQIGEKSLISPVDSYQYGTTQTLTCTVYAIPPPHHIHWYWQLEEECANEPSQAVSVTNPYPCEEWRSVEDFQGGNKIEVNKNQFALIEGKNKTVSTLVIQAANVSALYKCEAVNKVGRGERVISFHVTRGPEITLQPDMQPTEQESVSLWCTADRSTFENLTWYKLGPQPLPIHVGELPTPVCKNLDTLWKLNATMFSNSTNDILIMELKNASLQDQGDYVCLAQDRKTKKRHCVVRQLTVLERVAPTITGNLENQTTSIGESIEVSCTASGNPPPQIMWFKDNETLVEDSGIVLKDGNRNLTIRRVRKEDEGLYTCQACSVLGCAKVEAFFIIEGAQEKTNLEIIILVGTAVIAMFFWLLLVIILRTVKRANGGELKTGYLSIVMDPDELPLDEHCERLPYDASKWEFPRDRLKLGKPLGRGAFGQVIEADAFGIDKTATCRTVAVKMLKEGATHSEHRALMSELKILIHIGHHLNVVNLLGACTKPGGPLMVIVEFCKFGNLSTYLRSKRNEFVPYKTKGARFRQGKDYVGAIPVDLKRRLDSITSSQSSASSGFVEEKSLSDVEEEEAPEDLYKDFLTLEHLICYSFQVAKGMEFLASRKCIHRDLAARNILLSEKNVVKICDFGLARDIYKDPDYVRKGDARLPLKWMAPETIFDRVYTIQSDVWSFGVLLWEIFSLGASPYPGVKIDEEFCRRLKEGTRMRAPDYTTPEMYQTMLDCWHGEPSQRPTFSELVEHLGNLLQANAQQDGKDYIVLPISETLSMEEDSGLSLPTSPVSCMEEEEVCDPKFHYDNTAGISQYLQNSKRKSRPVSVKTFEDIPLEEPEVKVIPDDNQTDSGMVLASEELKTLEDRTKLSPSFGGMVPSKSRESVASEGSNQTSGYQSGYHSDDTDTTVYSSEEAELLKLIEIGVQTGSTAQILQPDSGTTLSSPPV
Sequence of MAP4K4 (HGK) (O95819 whole entry): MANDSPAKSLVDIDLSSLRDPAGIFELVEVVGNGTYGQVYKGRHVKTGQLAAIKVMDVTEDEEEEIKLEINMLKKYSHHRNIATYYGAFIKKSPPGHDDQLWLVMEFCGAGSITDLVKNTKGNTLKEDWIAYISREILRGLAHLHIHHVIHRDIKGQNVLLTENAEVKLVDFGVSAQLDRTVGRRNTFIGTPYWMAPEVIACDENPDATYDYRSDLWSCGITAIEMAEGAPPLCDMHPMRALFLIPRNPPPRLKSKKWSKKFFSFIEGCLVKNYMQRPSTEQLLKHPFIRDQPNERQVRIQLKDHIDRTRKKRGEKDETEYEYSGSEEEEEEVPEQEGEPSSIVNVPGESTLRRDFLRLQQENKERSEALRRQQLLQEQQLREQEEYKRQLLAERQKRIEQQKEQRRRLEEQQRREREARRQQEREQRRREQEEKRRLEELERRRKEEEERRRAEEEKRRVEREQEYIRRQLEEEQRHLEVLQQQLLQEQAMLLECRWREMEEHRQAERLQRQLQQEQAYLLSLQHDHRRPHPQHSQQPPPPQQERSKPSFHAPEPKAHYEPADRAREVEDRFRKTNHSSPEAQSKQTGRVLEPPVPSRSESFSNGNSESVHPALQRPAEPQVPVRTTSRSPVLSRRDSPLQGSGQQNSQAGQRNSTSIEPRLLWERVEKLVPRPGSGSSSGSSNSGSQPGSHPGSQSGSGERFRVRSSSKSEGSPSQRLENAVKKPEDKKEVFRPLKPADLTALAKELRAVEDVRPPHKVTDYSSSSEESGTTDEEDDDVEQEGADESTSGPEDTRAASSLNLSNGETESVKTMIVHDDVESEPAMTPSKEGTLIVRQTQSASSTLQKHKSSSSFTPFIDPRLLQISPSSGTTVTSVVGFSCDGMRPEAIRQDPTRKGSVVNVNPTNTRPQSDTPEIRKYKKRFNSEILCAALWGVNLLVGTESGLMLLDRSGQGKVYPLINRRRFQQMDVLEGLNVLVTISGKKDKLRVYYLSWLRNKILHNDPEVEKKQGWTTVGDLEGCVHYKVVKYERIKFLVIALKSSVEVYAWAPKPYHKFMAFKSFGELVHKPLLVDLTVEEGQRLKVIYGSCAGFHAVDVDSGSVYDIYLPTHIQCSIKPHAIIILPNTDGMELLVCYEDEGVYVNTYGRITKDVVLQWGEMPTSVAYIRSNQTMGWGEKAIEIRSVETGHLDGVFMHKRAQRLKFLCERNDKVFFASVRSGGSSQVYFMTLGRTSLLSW

Row | Compound | inhibition at 10 µM (KDR (VEGFR2); [1]) [%] | inhibition at 10 µM (KDR (VEGFR2); [2]) [%] | inhibition at 10 µM (AURKA (Aurora A); [3]) [%] | inhibition at 10 µM (AURKA (Aurora A); [4]) [%] | inhibition at 10 µM (MAP4K4 (HGK); [5]) [%] | inhibition at 10 µM (MAP4K4 (HGK); [6]) [%]
1 | Cc1cc(F)ccc1-c1cccn2nc(NC3CCc4c(cnn4C(C)C)C3)nc12 (stereo not drawn) [Example 44, [8-(4-fluoro-2-methyl-phenyl)-[1,2,4]triazolo[1,5-a]pyridine-2-yl]-(1-isopropyl-4,5,6,7-tetrahydro-1H-indazol-5-yl)-amine] | < 40 | 3 | < 40 | 7 | < 40 | 37
2 | Cc1cc(F)ccc1-c1cccn2nc(NC3CCc4c(cnn4CC(C)C)C3)nc12 (stereo not drawn) [Example 45, [8-(4-fluoro-2-methyl-phenyl)-[1,2,4]triazolo[1,5-a]pyridine-2-yl]-(1-isobutyl-4,5,6,7-tetrahydro-1H-indazol-5-yl)-amine] | < 40 | -10 | < 40 | -13 | < 40 | 2
3 | CCCCCn1ncc2c1CCC(Nc1nc3c(-c4ccc(F)cc4C)cccn3n1)C2 (stereo not drawn) [Example 47, [8-(4-fluoro-2-methyl-phenyl)-[1,2,4]triazolo[1,5-a]pyridine-2-yl]-(1-pentyl-4,5,6,7-tetrahydro-1H-indazol-5-yl)-amine] | < 40 | 6 | < 40 | 10 | < 40 | 32
4 | CCn1nc(Cl)c2c1CCC(Nc1nc3c(-c4ccc(F)cc4C)cccn3n1)C2 (stereo not drawn) [Example 48, (3-Chloro-1-ethyl-4,5,6,7-tetrahydro-1H-indazol-5-yl)-[8-(4-fluoro-2-methyl-phenyl)-[1,2,4]triazolo[1,5-a]pyridine-2-yl]-amine] | < 40 | 2 | < 40 | -14 | 40 to 80 | 50

Other lines, results leading:

Row | inhibition at 10 µM (KDR (VEGFR2); [1]) [%] | inhibition at 10 µM (KDR (VEGFR2); [2]) [%] | inhibition at 10 µM (AURKA (Aurora A); [3]) [%] | inhibition at 10 µM (AURKA (Aurora A); [4]) [%] | inhibition at 10 µM (MAP4K4 (HGK); [5]) [%] | inhibition at 10 µM (MAP4K4 (HGK); [6]) [%] | Compound
5 | < 40 | -3 | < 40 | -2 | < 40 | 37 | CCn1ncc2c1CCC(Nc1nc3c(-c4ccc(F)cc4C)cccn3n1)C2 (stereo not drawn) [Example 42, (1-Ethyl-4,5,6,7-tetrahydro-1H-indazol-5-yl)-[8-(4-fluoro-2-methyl-phenyl)-[1,2,4]triazolo[1,5-a]pyridine-2-yl]-amine]
6 | < 40 | -3 | < 40 | -17 | 40 to 80 | 40 | CCCn1ncc2c1CCC(Nc1nc3c(-c4ccc(F)cc4C)cccn3n1)C2 (stereo not drawn) [Example 43, [8-(4-fluoro-2-methyl-phenyl)-[1,2,4]triazolo[1,5-a]pyridine-2-yl]-(1-propyl-4,5,6,7-tetrahydro-1H-indazol-5-yl)-amine]
7 | < 40 | 3 | < 40 | 14 | 40 to 80 | 48 | CCCCn1ncc2c1CCC(Nc1nc3c(-c4ccc(F)cc4C)cccn3n1)C2 (stereo not drawn) [Example 46, [8-(4-fluoro-2-methyl-phenyl)-[1,2,4]triazolo[1,5-a]pyridine-2-yl]-(1-butyl-4,5,6,7-tetrahydro-1H-indazol-5-yl)-amine]
